Reference: paper PMC6479694, “Studies on the Interaction between Poly-Phosphane Gold(I) Complexes and Dihydrofolate Reductase: An Interplay with Nicotinamide Adenine Dinucleotide Cofactor” (International Journal of Molecular Sciences, 2019)
Where “and” joins values, the source holds several entries; their conditions need not be identical. Equal entries are not always repeated. Where two headings read alike, the source gives them in different places.

Experiments:
[1] = target: T1, DHFR from E. coli (Escherichia coli, UniProt P0ABQ4); assay: Fluorimetric binding assay, quenching of DHFR tryptophan emission (λexc = 280 nm); settings: for TΔS°: from van't Hoff analysis; for ΔG°: standard free energy equation from ΔH° and TΔS°; for ΔH° / ΔS°: van't Hoff equation from Kd at 25, 10 and −4 °C
T1 construct: made in house
Method: The Hepes/methanol solutions of the gold(I) compounds were used for the fluorimetric assays (see materials and methods section) regarding DHFR from E. coli. The emission’s maximum of DHFR was detected at 344 nm upon excitation at 280 nm; by adding additional amounts of the gold complex in Hepes/methanol solutions (ranging among 4 ÷ 50 µM), the quenching of this emission intensity was observed. In Figure 3, spectra showing the effect of ^4L3AuCl on DHFR emission are reported. It is possible to observe the quenching of the Tryptophan’s emission and the corresponding increase of the intrinsic phosphorescence of the gold compound.
(§1) The fluorimetric analysis was performed using a 1 mL quartz cuvette and a Perkin–Elmer Fluorescence Spectrometer LS 55. For all the analysis we used 5–12 µM solutions of DHFR and increasing concentrations of gold(I) compounds in the 4–60 µM range. For some experiments, saturating concentrations of NADPH (50 µM) were added to the initial solutions of DHFR to observe the affinity variation of the complexes with respect to the DHFR.
All the spectra were recorded in the range between 250 and 600 nm using an excitation wavelength characteristic of the Tryptophan, equal to 280 nm. For most of the experiments the temperature was kept constant at 25 °C; furthermore, to analyze the thermodynamic aspects of the reactions (via the van’t Hoff equation), quenching spectra of DHFR in presence of the gold(I) complexes were recorded at −4 and 10 °C as well.
(§2) The fluorimetric data were analyzed using the binding isotherm (Equation (2)), where [Q] is the concentration of the added quenching ligand, F is the measured fluorescence, F0 is the starting fluorescence, Fc is the fluorescence of the fully complexed protein, Kd is the dissociation constant, and n is the Hill coefficient. Indeed, n is a phenomenological parameter, an interaction coefficient, such as when n = 1 the equation describes a complex formation with one site of interaction, when n = 2 binding occurs with a dimer, when 1 < n < 2 a cooperative interaction occurs. (2) F0−F/F−Fc=[Q]^n/(Kd+[Q])^n

[2] = target: T2, DHFR/NADPH (Escherichia coli, UniProt P0ABQ4); assay: Fluorimetric binding assay on DHFR in presence of saturating NADPH; settings: 25 °C, saturating NADPH (50 µM); read-out: Kd ± s.d. (25 °C) in presence of saturating NADPH
T2 construct: made in house
Excerpt: After these preliminary emissive property characterizations, the fluorimetric studies were led in the presence of the enzyme DHFR and the cofactor NADPH [26]. […] Additionally, NADPH is fluorescent, with an absorption maximum at about 340 nm and an emission maximum at about 450 nm. […] Moreover, because NADPH has a maximum of absorption at 340 nm, significant energy transfer from the excited tryptophan of the enzyme to bound NADPH occurs; as a consequence, a new emission at 420–450 nm is then observed. Figure 8 reports the progressive quenching of the DHFR and NADPH emissions by stepwise adding of solution of ^4L3AuCl. Moreover, a slight shift of the typical emission at […] (λexc = 280 nm) is observed.
as §1, §2

[3] = target: T1, DHFR from E. coli; assay: Inhibition of DHFR-catalysed reduction of H2F to H4F, spectrophotometric at 340 nm, Dixon plot; format: biochemical; settings: pH 7.3, 30 °C, saturating NADPH, H2F 1.5-10 µM, Hepes/methanol
Method: The phosphane gold(I) compounds were used to prepare buffered stock solutions at pH = 7.3 at 30 °C for the inhibition tests of DHFR from E coli. In Table 1, the list of the gold(I) compounds used for the tests and the corresponding inhibition constants are reported.
The inhibition action of the gold phosphane compounds was tested in regards to the reduction of H2F to H4F reaction, catalyzed by DHFR [2]. The inhibition tests were led by analyzing the reciprocal reaction rate upon the addition of Hepes/methanol solutions of gold compounds in different set of tests in the saturated concentration of NADPH. The tests were repeated with different amounts of dihydrofolate (DHF) (1.5 ÷ 10 µM).
The standard deviations were calculated for a minimum of three determinations. (1) 1/ν=Km/VmaxKi[S]∗[I]+1/Vmax(1+Km/[S])
The activity of the DHFR was followed by recording the absorbance with a Shimadzu UV-2450 (UV-Vis spectrophotometer). The enzyme assays were made in a quartz cuvette by using similar experimental conditions: DHFR 3-5 nM, NADPH 60–80 μM, and H2F 1.5, 4, and 10 μM. The procedure consisted in the preparation of the following mixtures: 800–971 µL of 50 mM Hepes buffer at pH = 7.3, 20 μL of NADPH, 10 µl of DHFR, and increasing quantities of gold(I) compounds stock solutions in order to achieve higher accuracy in the measurement of the inhibitory effect. After storing the mixture for 5 min at 30 °C, 4–33 µL of H2F was added. The decreasing absorbance at 340 nm, due to the oxidation of NADPH to NADP^+, was detected after adding the H2F, and expressed in U mL^−1 using the equation: U·mL^−1 = Δabs/Δt/11.8 × dilution factor, where 11.8 is the mMolar extinction coefficient when NADPH and H2F are simultaneously present in solution. The Ki values were calculated with the Dixon plot from the second plot obtained computing the slope values against the reciprocal of the H2F concentrations.

[4] = target: T1, DHFR from E. coli; set-up: method as in PMID 25567238; settings: values obtained in a previous work, cited from earlier work
[5] = tested on: DHFR; set-up: method as in PMID 17920, PMID 12359872; settings: cited from earlier work
[6] = UV-visible spectroscopy stability test in Hepes/methanol solution; format: physicochemical; settings: 11.85 µM, Hepes/methanol 80:20, 30 °C, one hour, every 3 minutes
Method: The preparation of the gold compounds was performed according to methods already published and was based on the substitution of the labile ligand from the gold precursor [AuCl(Me2S)], by mean of a more coordinative ligand, such as the PPh3 or its modified analogs, ^4L and ^2L. Mole ratio with an excess of the phosphane ligand was pursued with the aim to enhance the reaction yield for tris-phosphane compounds. The solids obtained by crystallization were characterized by elemental analysis, ^1H and ^31P NMR, IR, and ESI Mass spectrometry. The stability of the stock solutions upon dilution was checked by recording UV-visible spectra (see Supplementary Material, Figures S1 and S2). The reactants for the ester reaction and ^4L or ^2L ligands were bought from Aldrich and used without any purification. Methanol or methylene chloride solvents were degassed and dried over molecular sieves.
UV-visible spectroscopy stability tests of compounds 4L3AuCl, 4L2AuCl, and 2L2AuCl on […]
Acquisitions of the absorptions in the range of 200–700 nm of the tested solutions were led for an hour lapse every 3 minutes in 11.85 µM concentration of 4L3AuCL (figure S1), 4L2AuCl, and 2L2AuCl (figure S2) at 30 °C. The stability was tested in Hepes/methanol 80:20, which are the same conditions used for the inhibition tests.
Figure S1. UV-visible spectra for 11.85 µM of 4L3AuCl in hepes/methanol
(1 picture or pasted object on this page, not shown here)

[7] = 25 °C, without NADPH, Hepes/methanol, read-out: Kd ± s.d., T = 25 °C
[8] = 10 °C, without NADPH, read-out: Kd ± s.d. (10 °C) (converted)
[9] = −4 °C, without NADPH, read-out: Kd ± s.d. (−4 °C) (converted)
[10] = 25 °C, when not specified n = 1

| Compound | Kd [1, 7] [µM] | Kd [1, 8] [µM] | TΔS° [1] | ΔG° [1] | ΔH° [1] | ΔS° [1] | Kd [1, 9] [µM] | Kd [2] [µM] | Ki [3] [µM] | Ki ([4]; read-out: Ki) | other results |
| --- | --- | --- | --- | --- | --- | --- | --- | --- | --- | --- | --- |
| O=C(O)c1ccccc1 [Benzoic acid, reference compound] | ~4000 |  |  |  |  |  |  |  |  |  |  |
| [Cl][Au]([PH](c1ccccc1)(c1ccccc1)c1ccccc1)[PH](c1ccccc1)(c1ccccc1)c1ccccc1 [L2AuCl, (PPh3)2AuCl] | 5.99 ± 0.4 | 2.47 | 2.5 n. d. * kcal/mol | −7.37 n. d. * kcal/mol | −4.87 n. d.* kcal/mol | 8.42 n. d. * cal/mol K | 3.83 | 2.22 ± 0.25 | 0.53 ± 0.03 |  | Kd ([1]; conditions not stated in the conclusions, read-out: thermodynamic constant for the dissociation of the adduct [DHFR:(PPh3)2AuCl]): ~2 µM |
| c1ccc(P(c2ccccc2)c2ccccc2)cc1 [L, PPh3, reference compound] |  |  |  |  |  |  |  |  |  | 6.16 ± 0.77 µM |  |
| [Cl][Au].c1ccc(P(c2ccccc2)c2ccccc2)cc1 [LAuCl, PPh3AuCl] |  |  |  |  |  |  |  |  |  | 1.21 ± 0.2 µM |  |
| CN(Cc1cnc2nc(N)nc(N)c2n1)c1ccc(C(=O)N[C@@H](CCC(=O)O)C(=O)O)cc1 [Methotrexate] |  |  |  |  |  |  |  |  |  |  | stronger bond to DHFR than DHF (factor) [5]: 10^3 |
| O=C(O)c1ccccc1P(c1ccccc1)c1ccccc1.O=C(O)c1ccccc1P(c1ccccc1)c1ccccc1.[Cl][Au] [^2L2AuCl, (2COOHPh-Ph2P)2AuCl] | 10.3 ± 0.65 |  |  |  |  |  |  | 4.73 ± 0.68 |  | 2 µM and 2.07 µM | Stability of the solution (UV-visible spectra 200–700 nm) [6]: no overall changes in solution over |
| O=C(O)c1ccccc1P(c1ccccc1)c1ccccc1.O=C(O)c1ccccc1P(c1ccccc1)c1ccccc1.O=C(O)c1ccccc1P(c1ccccc1)c1ccccc1.[Cl][Au] [^2L3AuCl, [tris(2-benzoate-diphenylphosphanyl)-gold(I)chloride]] | 10.5 ± 1.07 | 7.12 | 2.86 ± 0.1 kcal/mol | -6.8 ± 0.14 kcal/mol | -3.94 ± 0.1 kcal/mol | 9.58 ± 0.08 cal/mol K | 5.11 | 7.32 ± 2.46 | 21.3 ± 3.8 |  | n = Hill coefficient ([1]; 10 °C): 1.41 ± 0.048; n = Hill coefficient [1, 10]: 1.23 ± 0.082 |
| O=C(O)c1ccccc1P(c1ccccc1)c1ccccc1 [^2L, 2-(diphenylphosphine) benzoic acid, reference compound] |  |  |  |  |  |  |  |  |  |  | Ki [4]: No inhibition * |
| O=C(O)c1ccccc1P(c1ccccc1)c1ccccc1.[Cl][Au] [^2LAuCl, (2COOHPh-Ph2P)AuCl] |  |  |  |  |  |  |  |  |  | 1.1 ± 0.3 µM |  |
| O=C(O)c1ccc(P(c2ccccc2)c2ccccc2)cc1.O=C(O)c1ccc(P(c2ccccc2)c2ccccc2)cc1.[Cl][Au] [^4L2AuCl, (4COOHPh-Ph2P)2AuCl] | 4.42 ± 0.56 | 3.52 | 5.29 ± 0.2 kcal/mol | -7.31 ± 0.28 kcal/mol | -2.02 ± 0.2 kcal/mol | 17.76 ± 0.1 cal/mol K | 3.06 | 2.35 ± 0.61 |  | 27 µM and 27.8 µM | Stability of the solution (UV-visible spectra 200–700 nm) [6]: no overall changes in solution over |
| O=C(O)c1ccc(P(c2ccccc2)c2ccccc2)cc1.O=C(O)c1ccc(P(c2ccccc2)c2ccccc2)cc1.O=C(O)c1ccc(P(c2ccccc2)c2ccccc2)cc1.[Cl][Au] [^4L3AuCl, [tris(4-benzoate-diphenylphosphanyl)-gold(I)chloride]] | 3.84 ± 0.29 | 3.32 | 2.19 ± 0.1 kcal/mol | -7.23 ± 0.12 kcal/mol | -5.04 ± 0.08 kcal/mol | 7.34 ± 0.005 cal/mol K | 2 | 5.05 ± 2.7 | 4.6 ± 0.5 |  | n = Hill coefficient [1, 10]: 1.73; Stability of the solution (UV-visible spectra 200–700 nm) [6]: no overall changes in solution over |
| O=C(O)c1ccc(P(c2ccccc2)c2ccccc2)cc1.O=C(O)c1ccc(P(c2ccccc2)c2ccccc2)cc1.O=C(O)c1ccc(P(c2ccccc2)c2ccccc2)cc1.O=S(=O)([O][Au])C(F)(F)F [^4L3AuTfl, [tris(4-benzoate-diphenylphosphanyl)-gold(I)triflate]] | 21.4 ± 3.85 |  | 1.17 ± 0.9 kcal/mol |  | -5.32 ± 3.2 kcal/mol | 3.92 ± 8.8 cal/mol K | 8.08 |  | 6.33 ± 0.7 |  |  |
| O=C(O)c1ccc(P(c2ccccc2)c2ccccc2)cc1 [^4L, 4-(diphenylphosphino)benzoic acid, reference compound] | 59.6 ± 5.7 |  |  |  |  |  |  |  |  |  | Ki [4]: No inhibition * |
| O=C(O)c1ccc(P(c2ccccc2)c2ccccc2)cc1.[Cl][Au] [^4LAuCl, (4COOHPh-Ph2P)AuCl] |  |  |  |  |  |  |  |  |  | 2.25 ± 0.62 µM |  |
| COC(=O)c1ccc(P(c2ccccc2)c2ccccc2)cc1.COC(=O)c1ccc(P(c2ccccc2)c2ccccc2)cc1.COC(=O)c1ccc(P(c2ccccc2)c2ccccc2)cc1.[Cl][Au] [^4MeL3AuCl] | 13.4 ± 2.24 | 7.63 | 2.29 n. d. * kcal/mol | −6.64 n. d. * kcal/mol | −4.35 n. d. * kcal/mol | 7.69 n. d. * cal/mol K | 21.2 | 4.55 ± 1.04 | 12.7 ± 2.1 |  |  |
